These results are taken from US10857201B2, “NNIF and nNIF-related peptides and related methods” (UNIVERSITY OF UTAH RESEARCH FOUNDATION, priority 2016, dated 2020).

Experiment [1] has as its system neutrophil extracellular trap (NET) formation. The experiment in a line: In vitro NET formation by stimulated human PMNs (live cell imaging, NET-associated histone H3 release). Type of experiment: cell-based. How it is done: Qualitative assessment of NET formation was performed as previously reported (see Yost C C, et al., Blood. 2009; 113 (25):6419-27 and McInturff A M, et al., Blood. 2012; 120 (15):3118-25). Briefly, primary PMNs isolated from preterm infants, healthy term infants, and healthy adults (2×10^6 cells/mL) were incubated with control buffer or stimulated with indicated agonists or bacteria for 1 hour at 37° C. in 5% CO2/95% air on glass coverslips coated with poly-L-lysine. For selected experiments, primary PMNs were pre-incubated with autologous plasma, cord blood plasma, nNIF (0.2-70 nM), CRISPP (0.2-70 nM), nNIF-SCR (1 nM), or CRISPP-SCR (1 nM) for one hour prior to stimulation. After pre-incubation and/or stimulation, PMNs were gently washed with PBS and incubated with a mixture of cell permeable (SYTO® Green, MOLECULAR PROBES®) and impermeable (SYTOX® Orange, MOLECULAR PROBES®) DNA fluorescent dyes. Confocal microscopy was accomplished using a FV1000 IX81 confocal microscope and FLUOVIEW™ software (OLYMPUS™). Both 20× and 60× objectives were used. Z-series images were obtained at a step size of 1 μm over a range of 20 μm for each field. FLUOVIEW™ and ADOBE™ PHOTOSHOP™ CS2 software was used for image processing.
Using BSL 2 safety protocols, primary PMNs isolated from healthy adults (2×10^6 cells/mL) were incubated with mock infection buffer or live dengue virus (M010.05) as for live cell imaging. After a 1-hour incubation, the infected PMNs were fixed with 2% p-FA for 10 minutes prior to incubation with fluorescently-labeled, cell-permeable and cell-impermeable DNA dyes, and imaged as for live cell imaging using confocal microscopy.
NET-associated histone H3 content was determined as previously described (see McInturff A M, et al., Blood. 2012; 120 (15):3118-25). After live cell imaging of control and stimulated primary PMNs (2×10^6/mL; various agonists), the cells were incubated with PBS containing DNase (40 U/mL) for 15 minutes at room temperature to break down and release NETs formed in response to stimulation. The supernatant was gently removed and centrifuged at 420×g for 5 minutes. The cell-free supernatant was then mixed 3:1 with 4× Laemmli buffer prior to western blotting. A polyclonal primary antibody against human histone H3 protein (CELL SIGNALING®) and infrared-conjugated secondary antibodies (LI-COR®) were used. Imaging and densitometry were performed on the ODYSSEY® infrared imaging system)(LI-COR®). This assay was previously validated as a surrogate for NET formation under in vitro conditions (see McInturff A M, et al., Blood. 2012; 120 (15):3118-25) as employed in the present studies.
Without being bound by any specific theory, it was hypothesized that placentally expressed HTRA1, a serine protease, regulates the formation of NET-inhibitory peptides through cleavage of AAT. To test this hypothesis, term and preterm placenta were assessed for HTRA1 expression via western blotting. HTRA1 and AAT plasma expression from term and preterm infants and adults were determined by ELISA. Bioactive (0.5 μg) or placental eluted HTRA1 was incubated with AAT (8 μM) for 18 hours at 37° C. Carboxy-terminus fragments of AAT were detected using western blotting and mass spectrometry. The reaction products were incubated for 1 hour with PMNs isolated from healthy adults prior to LPS stimulation (100 ng/mL) and assessed for NET formation using live cell imaging. Reactive oxygen species were assessed using flow cytometry, chemotaxis using a modified Boyden chamber assay, and bacterial killing using E. coli.

Experiment [2] has as its system NET formation in E. coli peritonitis. The experiment in a line: Mouse model of E. coli peritonitis (in vivo NET formation). To be noted: C57BL/6 mice, 10 mg/kg i.p. 1 hour before E. coli i.p., 3 hours. The text has this: FIG. 8A depicts results of peritoneal fluid NET formation (red fluorescence, yellow arrow) assessed by live cell imaging (60× magnification, scale bar=50 μm) and histone H3 release (red dashed line=baseline arbitrarily set at 1). Three mice per group. One way ANOVA with Tukey's post hoc testing, ***P<0.001 for CRISPP and nNIF versus CRISPP-SCR.
FIG. 8B depicts results of NET formation on the surfaces of peritoneal membranes (red fluorescence, yellow arrows) that was quantified by counting the number of NETs that crossed standardized grid lines in […] (60× magnification; scale bar=50 μm) using IMAGEJ™ software. A second experiment yielded a similar pattern. FIGS. 8A and 8B depict C57BL/6 mice that were not pretreated or pretreated with nNIF, CRISPP, or CRISPP-SCR (10 mg/kg i.p.; 1 hour) and were inoculated with E. coli (4.5×10^7 bacteria i.p.). After 3 hours, the animals were sacrificed, and peritoneal fluid (FIG. 8A) and membranes (FIG. 8B) were collected for analysis.
FIG. 8C depicts C57BL/6 mice that were not pretreated (left two bars) or that were pretreated with CRISPP, nNIF, or CRISPP-SCR, and that were inoculated with E. coli i.p. as in FIGS. 8A and 8B. Neutrophil numbers in peritoneal fluid were counted after 3 hours (3-5 mice/group). […]
FIG. 8E depicts peritoneal fluid NET formation, imaged and measured as in FIG. 8A (10 mice/group). *P<0.05 for CRISPP/E. coli and nNIF/E. coli compared to CRISPP-SCR/E. coli and E. coli.
FIG. 8F depicts NET formation on peritoneal membrane surfaces, imaged and quantitated as in FIG. 8B (3 mice in each group). *P<0.05 for E. coli versus control (red dashed line); **P<0.01 for CRISPP-SCR/E. coli versus control; †P<0.05 for CRISPP/E. coli and nNIF/E. coli versus CRISPP-SCR/E. coli. One way ANOVA with Tukey's post-hoc testing applied in FIGS. 8E and 8F. In FIGS. 8E and 8F, Swiss-Webster mice that were not pretreated or that were pretreated with nNIF, CRISPP, or CRISPP-SCR were inoculated with E. coli i.p. as in FIGS. 8A and 8B. After 3 hours, peritoneal fluid and membranes were collected. FIGS. 8A-8F indicate that nNIF and CRISPP inhibit in vivo NET formation.
(§1) C57/BL6 or Swiss-Webster mice were pretreated in blinded fashion with CRISPP (10 mg/kg), nNIF (10 mg/kg), or CRISPP-SCR (10 mg/kg) by i.p. injection 1 hour prior to infection (E. coli, 4.5×10^7 cfu/mouse, i.p.) or inoculation (LPS, 25 mg/kg, i.p.) (SIGMA-ALDRICH®). Control mice were injected with saline alone. The mice were sacrificed in a CO2 chamber 3 hours post-infection/inoculation, and the peritoneal fluid and membrane samples were harvested. Briefly, the abdomen was disinfected and opened in the midline without injuring the muscle. The peritoneal cavity was lavaged with sterile saline solution (1 mL) and analyzed for in vivo NET formation, bacteriology, and leukocyte accumulation. NETs in the peritoneal fluid were qualitatively and quantitatively analyzed using live cell imaging with confocal microscopy and NET-associated histone H3 release assays. NETs on the serosal surface of the peritoneal membrane were assessed quantitatively using live cell imaging, followed by standardized grid analysis of five randomly selected high-power visual fields per tissue sample (IMAGEJ™ software, NIH). Peritoneal bacterial colony forming unit (cfu) counts were quantified by permeabilizing all recovered leukocytes with 0.1% Triton X-100 for 10 minutes and performing serial dilutions and bacterial cultures on 5% sheep blood agar plates (HARDY DIAGNOSTICS™). After a 24-hour incubation, bacterial counts were determined. Total leukocyte counts in the peritoneal lavage were determined in Neubauer chambers using an optical microscope after dilution in Turk's solution (2% acetic acid). Differential leukocyte analysis was performed using a 60× oil immersion objective to assess morphology of cyto-centrifuged cells stained with May-Gruenwald-Giemsa dye. All mice were included in the final analysis.

Experiment [3] has as its system C57BL/6 mice challenged with LPS. Description: Mouse model of systemic inflammation induced by LPS (endotoxemia), survival. Type of experiment: in vivo. Particulars: i.p. LPS, first experiment, n=6 per group. How it is done:
Animals with no treatments or given LPS alone were studied in parallel (n≥10 mice for each condition). **P<0.01, log-rank (Mantel-Cox) statistical tool used. The survival difference between nNIF-LPS and CRISPP-LPS compared to CRISPP-SCR-LPS trended toward significance (§ P=0.051).
Control mice were i.p. injected with saline alone. Fluid resuscitation and antibiotic treatment were not used in these experiments. Survival was assessed over 50 or 72 hour intervals. All mice were included in the final survival analysis.

Experiment [4] concerns LPS-induced peritoneal NET formation. Description: Mouse model of LPS-induced peritonitis (in vivo NET formation). To be noted: C57BL/6 mice, i.p. LPS. On the procedure: as §1

Take “V_MDITPMQVGPLKMKPKVIFNPFKLFENF [CRISPP-SCR, scrambled control peptide of CRISPP, reference compound]”: the “PMA-stimulated NET deployment” value in experiment [1] (PMA 20 nM, peptides 1 nM, 1 hour preincubation) is reported as “not”. In addition, the “NET formation triggered by LPS” value in experiment [1] (adult PMNs preincubated with agent, LPS 100 ng/mL, 1 hour) is reported as “does not”. In addition, in experiment [2], the “NET formation by peritoneal fluid PMNs” value is “not” and the “deployment of NETs on the peritoneal surface” value is “not”. Besides, the “animals alive at 50 hours” value in experiment [3] stood at 30%. For the same substance, the “LPS-induced peritoneal NET formation” value in experiment [4] was “not”.
